Key:
clone 10 cells = assay: Cell cycle distribution by propidium iodide, coupled with the Bax activation test; assay type: cell-based, human; conditions: propidium iodide 0.4-0.8 mg/ml, 30 minutes at 4° C., FIG. 11
Experimental: FIG. 11A-E represents the coupled measurement of Bax activation and the cell cycle. The clone 10 cells stably expressing the GFP-Bax fusion protein are treated with various drugs acting as pro-apoptotic agents and/or cytostatic agents. The measurement of Bax activation is carried out as described previously by evaluation of the retention of fluorescence after permeabilization with digitonin. In the permeabilization buffer, propidium iodide (0.4-0.8 mg/ml) was added and the cells were incubated for 30 minutes at 4° C. The distribution of the cells in the various phases of the cell cycle is read on the basis of their intensity of fluorescence in the red (PI). […] Moreover, it makes it possible to evaluate if Bax activation takes place in a preferential phase of the cell cycle.
The measurement of the cell cycle can be carried out in a traditional way by adding to the permeabilized cell suspension a sufficient concentration of propidium iodide (0.4-0.8 mg/ml). The cells are incubated for 30 minutes to allow time for PI to become intercalated in the genomic DNA, and then analyzed using flow cytometry by simultaneously measuring “green” fluorescence (FL1=the recombinant biosensor signal based on GFP or another fluorescent protein emitting in the green range) and “red” fluorescence (FL3=the intensity of PI corresponding to the chromatin content of each cell, which enables the cell cycle to be read).

Bax protein = assay: Bax activation: retention of GFP-Bax fluorescence after digitonin permeabilization, flow cytometry; assay type: cell-based, human; conditions: clone 10; coupled test FL1 (GFP) / FL3 (DNA); FIG. 11
Experimental: FIG. 11A-E represents the coupled measurement of Bax activation and the cell cycle. The clone 10 cells stably expressing the GFP-Bax fusion protein are treated with various drugs acting as pro-apoptotic agents and/or cytostatic agents. The measurement of Bax activation is carried out as described previously by evaluation of the retention of fluorescence after permeabilization with digitonin. In the permeabilization buffer, propidium iodide (0.4-0.8 mg/ml) was added and the cells were incubated for 30 minutes at 4° C. The distribution of the cells in the various phases of the cell cycle is read on the basis of their intensity of fluorescence in the red (PI).
The model implemented uses a clone designated “clone 10”.
The test is then based on the observation, under the fluorescence microscope or by flow cytometry, of the cells in which Bax is not activated and thus is distributed uniformly in the cytosol and of the cells in which Bax has been activated following an induction of apoptosis. In the latter case, the fluorescent signal is aggregated around the mitochondria and the Bax protein is thus considered as “bound”.
The cells are then resuspended in an intracellular saline solution in the presence of 50 μM of digitonin and then analyzed by flow cytometry and the fluorescence of the GFP is measured in channel FL1.

caspase 3 [1] = assay: Caspase 3 activation in a xenografted clone 23 tumor in nude mice, confocal microscopy; assay type: in vivo; conditions: mouse with xenografted clone 23 tumor; 40 mg/kg/day for 4 days; FIG. 12c
Description: FIG. 12 represents the xenograft of lines expressing a fluorescent biosensor. a) Confocal microscopy image (10×) of a section of a solid tumor generated by a subcutaneous xenograft of clone 10 cells (stably expressing GFP-Bax) in nude mice. Marking of nuclei (Hoechst) and cells with activated Bax (GFP-Bax). On the right, the detail of a cell with GFP-Bax relocalized to the mitochondria (GFP-Bax) and corresponding nuclear marking (Hoechst). b) Confocal microscopy image (10×) of a section of a solid tumor generated by a subcutaneous xenograft of clone 23 cells (stably expressing the protein copGFP-DEVD-cb5TMD-RR) in nude mice. Marking of nuclei (Hoechst) and distribution of the biosensor (caspase 3 probe).
These lines (designated clone 10 and clone 23, respectively), injected subcutaneously in “nude” mice form solid fluorescent tumors after a few days.

caspase 2 = assay: Distribution of nuclear-anchored caspase 2 probe in HeLa cells; assay type: cell-based, human; conditions: transiently transfected, 3 hours, untreated cells show nuclear distribution, FIG. 10e
Description: Fusion proteins GFP-cb5TMRR and GFP-SNAP(80-136) were constructed which carry, in the linker connecting the fluorescent protein and the anchoring segment, the caspase 8 consensus sensing site (IETD) which is principal “initiating” pro-apoptotic caspase. In the same manner, a fusion protein GFP-H2B was constructed which contains, in the sequence linker, the caspase 2 consensus sensing sequence (VDVAD), which is a protease with nuclear localization. The sensing components thus used have as sequences SEQ ID No. 6 and 14 (for caspase 8), and SEQ ID No. 12 (for caspase 2). These proteins are cleavable and the quantification of the proteolytic activity can be carried out via cytometry as shown for caspase 3 (FIG. 10).

caspase 3 [2] = assay: Cleavage and redistribution of caspase 3 probes, confocal and fluorescence microscopy; assay type: cell-based, human
Experimental: The quantification of cleavage and of the diffusion of the fluorescent signal in the cytosol is carried out by measuring the increase in the respectively green and red fluorescent signal in a region of the nucleus.
The quantification of the cleavage and of the diffusion of the fluorescent signal respectively from the nucleus to the cytosol for the protein H2B-DEVD-GFP and from the cytosol to the nucleus for the protein HcRed-DEVT-cb5 is carried out by measuring the increase in the fluorescent signal, respectively green in a cytosolic region of the cell and red in a region of the nucleus. e) Evaluation by flow cytometry of the functionality of the probe by quantification of the percentage of retention of fluorescence after permeabilization in a population of HeLa cells transfected transiently with the protein H2B-DEVD-GFP and its non-cleavable control.
The cells are cultivated on glass slides and transfected with the vector described previously; they are then mounted in a saline medium in an incubation chamber and observed under the fluorescence microscope. Before or during the observation, they are treated with the pro-apoptotic agent.

| SMILES | Effect on the cell cycle (distribution in phases G1, S, G2/M) (clone 10 cells) | Bax activation in relation to the phase of the cell cycle (Bax protein) | further results |
| --- | --- | --- | --- |
| CN[C@H]1CCc2cc(OC)c(OC)c(OC)c2-c2ccc(OC)c(=O)cc21 [colcemid] | accumulation in phase G2 |  |  |
| CC[C@@]1(O)C(=O)OCc2c1cc1n(c2=O)Cc2cc3ccccc3nc2-1 [camptothecin] | blockage in phase S | Bax activation preferentially in phase Gl |  |
| COc1cc([C@@H]2c3cc4c(cc3[C@@H](O[C@@H]3O[C@@H]5CO[C@@H](C)O[C@H]5[C@H](O)[C@H]3O)[C@H]3COC(=O)[C@H]23)OCO4)cc(OC)c1O [etoposide] |  |  | Caspase 3 activation in tumor cells (cytosolic distribution of fluorescence) (caspase 3 [1]): appearance of cells having activated caspase 3 |
| COc1cccc2c1C(=O)c1c(O)c3c(c(O)c1C2=O)C[C@@](O)(C(C)=O)C[C@@H]3O[C@H]1C[C@H](N)[C@H](O)[C@H](C)O1 [daunorubicin] | accumulation in phase G2 | Bax activation in phase S |  |
| CN[C@@H]1C[C@H]2O[C@@](C)([C@@H]1OC)n1c3ccccc3c3c4c(c5c6ccccc6n2c5c31)C(=O)NC4 [staurosporine] | no effect on the cycle | induction of Bax activation in any phase of the cycle | Distribution of fluorescent protein GFP-IETD-H2B (caspase 2): cytosolic distribution; Cleavage of probes GFP-DEVD-ANT and HcRed-DEVD-Cb5RR (caspase 3 [2]; human HeLa cells, transiently co-transfected, confocal microscopy, FIG. 8e-f): Release of the fluorescent protein in the cytosol following its cleavage; Distribution of fluorescent protein H2B-DEVD-GFP (caspase 3 [2]; human HeLa cells, transiently transfected, untreated cells show nuclear distribution, FIG. 9c): cytosolic distribution; Cleavage of probe GFP-DEVD-SNAP(80-136) (caspase 3 [2]; human SH-SY5Y neuroblastoma cells, transiently transfected, confocal microscopy, FIG. 7c): Release of the fluorescent protein in the cytosol following its cleavage |
